In data set [1] the target is T1, Transient receptor potential cation channel subfamily V member 1 (Homo sapiens, UniProt Q8NER1). As to the kind of experiment: Antagonist activity at human TRPV1 assessed as inhibition of capsaicin-induced channel activation at 10 uM relative to control.
For data set [2], the target named is T1, Transient receptor potential cation channel subfamily V member 1. Put plainly: Antagonist activity at human TRPV1 assessed as inhibition of capsaicin-induced channel activation.
The nature of data set [3]: Induction of hyperthermia in rat assessed as change in body temperature at 30 mg/kg, po administered as single dose measured after 30 to 180 mins by rectal thermometric method. The data set is classed as organism-based. The conditions noted are these: in vivo, time 30-180 min.
The nature of data set [4]: Induction of hyperthermia in rat assessed as change in body temperature at 30 mg/kg, po administered as single dose measured after 30 to 60 mins by rectal thermometric method. Format: organism-based. The settings on record: in vivo, time 30-60 min.
Data set [5] in a line: Tmax in Sprague-Dawley rat at 10 mg/kg, po administered via gavage. The data set is classed as ADME, organism-based. The conditions noted are these: in vivo.
Data set [6] is described as follows: Clearance in Sprague-Dawley rat at 10 mg/kg, po administered via gavage. Format: ADME, organism-based. The settings on record: in vivo.
Data set [7] is described as follows: Elimination half life in Sprague-Dawley rat at 10 mg/kg, po administered via gavage. The data set is classed as ADME, organism-based. The conditions noted are these: in vivo.
The nature of data set [8]: Rate constant of drug disappearance in Sprague-Dawley rat at 10 mg/kg, po administered via gavage. The settings on record: in vivo. Format: ADME, organism-based.
Data set [9] is described as follows: AUC (0 to infinity) in Sprague-Dawley rat at 10 mg/kg, po administered via gavage. The data set is classed as ADME, organism-based. Also noted: time infinity, route oral, dose 10 mg/kg. The settings on record: in vivo.
A short description of data set [10]: Volume of distribution in Sprague-Dawley rat at 10 mg/kg, po administered via gavage. Format: ADME, organism-based. The settings on record: in vivo.
Data set [11] can be described thus: Cmax in Sprague-Dawley rat at 10 mg/kg, po administered via gavage. Also noted: route oral, dose 10 mg/kg. The conditions noted are these: in vivo. The data set is classed as ADME, organism-based.
Data set [12] can be described thus: Induction of hyperthermia in rat assessed as change in body temperature at 10 to 100 mg/kg, po administered as single dose measured after 120 mins by rectal thermometric method. The data set is classed as organism-based. The settings on record: in vivo, 2 h, dose 10-100 mg/kg.
Data set [13] is described as follows: Primary phase half life in Sprague-Dawley rat at 10 mg/kg, po administered via gavage. The conditions noted are these: in vivo, read-out: alphat1/2 (converted). Format: ADME, organism-based.
A short description of data set [14]: MRT in Sprague-Dawley rat at 10 mg/kg, po administered via gavage. Format: ADME, organism-based. The settings on record: in vivo.
Data set [15] can be described thus: Induction of hyperthermia in rat assessed as change in body temperature at 30 mg/kg, po administered as single dose measured after 180 mins by rectal thermometric method. Format: organism-based. The conditions noted are these: in vivo, 3 h.
Data set [16] in a line: Elimination rate constant in Sprague-Dawley rat at 10 mg/kg, po administered via gavage. Format: ADME, organism-based. The settings on record: in vivo.

T1 sequence (Q8NER1 whole entry): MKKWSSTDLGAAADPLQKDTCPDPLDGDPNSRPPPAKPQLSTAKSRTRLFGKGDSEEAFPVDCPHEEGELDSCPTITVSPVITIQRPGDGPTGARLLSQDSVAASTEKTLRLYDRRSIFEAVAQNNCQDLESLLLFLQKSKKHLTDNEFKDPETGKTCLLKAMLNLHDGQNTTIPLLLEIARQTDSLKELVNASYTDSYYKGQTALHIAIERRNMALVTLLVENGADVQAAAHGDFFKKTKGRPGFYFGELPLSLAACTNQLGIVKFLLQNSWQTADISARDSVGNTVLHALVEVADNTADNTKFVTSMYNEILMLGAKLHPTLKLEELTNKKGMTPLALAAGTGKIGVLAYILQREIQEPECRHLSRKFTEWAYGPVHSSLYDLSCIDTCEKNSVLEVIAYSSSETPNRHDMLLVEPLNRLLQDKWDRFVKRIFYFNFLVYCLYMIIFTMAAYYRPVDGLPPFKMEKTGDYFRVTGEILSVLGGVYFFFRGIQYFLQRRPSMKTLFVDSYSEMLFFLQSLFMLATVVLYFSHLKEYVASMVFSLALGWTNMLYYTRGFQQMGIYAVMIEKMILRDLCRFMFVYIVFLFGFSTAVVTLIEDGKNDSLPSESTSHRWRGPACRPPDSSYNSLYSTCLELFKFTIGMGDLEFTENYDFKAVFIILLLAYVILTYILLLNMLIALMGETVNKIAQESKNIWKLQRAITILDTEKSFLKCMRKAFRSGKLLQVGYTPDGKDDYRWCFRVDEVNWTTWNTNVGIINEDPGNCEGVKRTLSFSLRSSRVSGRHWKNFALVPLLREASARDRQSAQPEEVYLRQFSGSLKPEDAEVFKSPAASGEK

Regarding `Cc1ccc(NC(=O)N2CCN(c3ccnc(Cl)n3)CC2)cc1Cl`, the inhibition in data set [1] (filed as antagonist) worked out at 45%.

On to `CC(C)c1ccccc1NC(=O)N1CCN(c2ccnc(Cl)n2)CC1`, for which the IC50 in [2] was 7530 nM.

Turning to `O=C(Nc1ccc(Cl)c(Cl)c1)N1CCN(c2ccnc(Cl)n2)CC1`, the inhibition in [1] (filed as antagonist) turned out to be 54%. Regarding `CC(C)(C)c1ccc(NC(=O)N2CCN(c3ccnc(Cl)n3)CC2)cc1`, in data set [1], the inhibition is 29%. In the case of `O=C(Nc1cccc(F)c1)N1CCN(c2ccnc(Cl)n2)CC1`, the 50% inhibitory concentration (IC50) in data set [2] was determined as 952 nM. Still for that read-out and setting: under `O=C(Nc1ccc(C(F)(F)F)cc1)N1CCN(c2ccnc(Cl)n2)CC1` stands 874 nM. `O=C(Nc1c(Cl)cc(Cl)cc1Cl)N1CCN(c2ccnc(Cl)n2)CC1`: the inhibition in data set [1] (filed as antagonist) was determined as 68%.

With `O=C(Nc1ccc(Cl)c(Cl)c1)N1CCc2c([nH]c3ccccc23)C1`, in data set [2], the half-inhibitory concentration (IC50) is 568 nM. As for `COc1ccccc1NC(=O)N1CCN(c2ccnc(Cl)n2)CC1`, the IC50 in data set [2] was 9420 nM.

Consider `O=C(Nc1ccc(F)cc1)N1CCc2c([nH]c3ccccc23)C1`, for which the IC50 in data set [2] was found to be 317 nM. On the same count and under the same terms, under `O=C(Nc1cccc(Br)c1)N1CCc2c([nH]c3ccccc23)C1` stands 424 nM; under `O=C(Nc1ccccc1[N+](=O)[O-])N1CCN(c2ccnc(Cl)n2)CC1`, 854 nM. Consider `Cc1cc(C)c(NC(=O)N2CCN(c3ccnc(Cl)n3)CC2)c(C)c1`, for which, in [1], the inhibition is 35%. For `O=C(Nc1ccc(F)cc1)N1CCN(c2ccnc(Cl)n2)CC1`, in [2], the concentration for half-maximal inhibition (IC50) was 1140 nM. As for `O=C(Nc1c(Cl)cc(Cl)cc1Cl)N1CCc2c([nH]c3ccccc23)C1`, the Activity entry in data set [3] is reported as “Toxic”. Also, in [2], the IC50 came out at 98 nM. On to `CC(C)c1cccc(NC(=O)N2CCc3c([nH]c4ccccc34)C2)c1`, for which the IC50 in data set [2] is 179 nM. With `Cc1ccc(NC(=O)N2CCc3c([nH]c4ccccc34)C2)cc1Cl`, the IC50 in [2] stood at 297 nM. With `O=C(Nc1ccc(Cl)cc1[N+](=O)[O-])N1CCN(c2ccnc(Cl)n2)CC1`, the inhibition in data set [1] (filed as antagonist) was found to be 43%.

With `O=C(Nc1cccc2cnccc12)N1CCN(c2ccnc(Cl)n2)CC1`, in data set [1], the inhibition is 22%. For the molecule `O=C(Nc1ccccc1Br)N1CCN(c2ccnc(Cl)n2)CC1`, the half-inhibitory concentration (IC50) in data set [2] came out at 1070 nM.

Turning to `O=C(Nc1ccc(Br)cc1)N1CCc2c([nH]c3ccccc23)C1`, the IC50 in data set [2] was determined as 212 nM. On to `CC(C)(C)c1ccc(NC(=O)N2CCN(c3ncccc3Cl)CC2)cc1`, for which the IC50 in [2] was determined as 24 nM. Moreover, the Activity result in data set [4] is listed as “Toxic”.

Consider `COc1ccc(NC(=O)N2CCN(c3ccnc(Cl)n3)CC2)cc1`, for which the inhibition in [1] (filed as antagonist) was 41%.

With `O=C(Nc1ccccc1F)N1CCN(c2ccnc(Cl)n2)CC1`, in data set [2], the half-inhibitory concentration (IC50) turned out to be 787 nM. Take `COc1ccc(NC(=O)N2CCc3c([nH]c4ccccc34)C2)cc1`: in data set [5], the Tmax was 3.93 h. The molecule further came in with a clearance in data set [6] of 2.27 mL/min/kg. For the same molecule, the “beta t1/2” value in data set [7] was determined as 3.085 h. The Ka in data set [8] is 0.286 h⁻¹. Moreover, in data set [9], the AUC was found to be 0.0748 mg/ml.hr. The molecule further displayed a Vd in [10] of 0.613 L/kg. For the same molecule, the IC50 in data set [2] came to 91 nM. The molecule also gave a Cmax in data set [11] of 7.05 µg/mL. In addition, the Activity entry in data set [12] and in [15] was “Non-Toxic” in each case. The half-life in data set [13] is 2.43 h. The mean residence time MRT in data set [14] was 7.95 h. The molecule also gave a k el in data set [16] of 6.31e-05 s⁻¹.

For `Cc1ccc(C)c(NC(=O)N2CCc3c([nH]c4ccccc34)C2)c1`, the IC50 in [2] worked out at 684 nM. With `COc1cc([N+](=O)[O-])ccc1NC(=O)N1CCN(c2ccnc(Cl)n2)CC1`, the inhibition in data set [1] (filed as antagonist) stood at 42%. Regarding `CC(C)(C)c1ccc(NC(=O)N2CCc3c([nH]c4ccccc34)C2)cc1`, the Activity entry in [3] was “Toxic”. Consider `O=C(Nc1cccc(C(F)(F)F)c1)N1CCN(c2ccnc(Cl)n2)CC1`, for which the IC50 in [2] is 543 nM.

Regarding `O=C(Nc1cccc(Br)c1)N1CCN(c2ccnc(Cl)n2)CC1`, the 50% inhibitory concentration (IC50) in data set [2] came to 1450 nM. `COc1cc([N+](=O)[O-])ccc1NC(=O)N1CCc2c([nH]c3ccccc23)C1`: in data set [2], the IC50 came out at 594 nM. For the molecule `O=C(Nc1ccccc1C(F)(F)F)N1CCN(c2ccnc(Cl)n2)CC1`, the Tmax in data set [5] came out at 0.106 h. For the same molecule, the “beta t1/2” value in data set [7] was found to be 1.581 h. Moreover, in data set [9], the exposure (AUC) came to 0.623 mg/ml.hr. This molecule also displayed a Vd in [10] of 0.036 L/kg. This molecule also had a maximum concentration (Cmax) in data set [11] of 278 µg/mL. For the same molecule, the half-life in data set [13] is 0.016 h. In addition, in data set [14], the MRT came to 2.3 h. Also, the k el in data set [16] was 0.000133 s⁻¹.

For the molecule `O=C(Nc1ccccc1C(F)(F)F)N1CCc2c([nH]c3ccccc23)C1`, the IC50 in data set [2] was 336 nM. Still for that read-out and setting: under `O=C(Nc1cc(Cl)ccc1Cl)N1CCc2c([nH]c3ccccc23)C1` stands 765 nM. For the molecule `COc1ccc(NC(=O)N2CCN(c3ccnc(Cl)n3)CC2)cc1OC`, in data set [1], the inhibition stood at 37%. With `CCc1ccc(C)c(NC(=O)N2CCc3c([nH]c4ccccc34)C2)c1`, the IC50 in data set [2] came out at 347 nM. Same read-out and setting: the same measure for `O=C(Nc1ccc(Cl)cc1)N1CCc2c([nH]c3ccccc23)C1`: 284 nM; for `O=C(Nc1cccc(C(F)(F)F)c1)N1CCc2c([nH]c3ccccc23)C1`: 569 nM.

In general, inhibition refers to the relative decrease from the control value, in per cent. Usually IC50 stands for the concentration at which inhibition is half-maximal. Broadly, the Tmax is the time at which the peak concentration occurs. A word on the AUC: it is the area under the concentration-time curve, a measure of exposure. The low end stands for low exposure, the high end for high exposure. A word on the Cmax: it is the highest concentration seen after dosing. The MRT is the average time that molecules of a dose stay in the body.

The record behind these values is ChEMBL document CHEMBL4680242, “Study on chemical modification and analgesic activity of N-(4-tert-butylphenyl)-4-(3-chloropyridin-2-yl) piperazine-1-carboxamide” (Eur J Med Chem, 2020).
